Assay results published in US8828678B2, “Self-immolative probes for enzyme activity detection” (Enzo Life Sciences, Inc., priority 2010, dated 2014).

Experiments:
[1] = test system: HeLa cells; test: Combined detection of hypoxia and redox status in live cells by fluorescent microscopy; type: cell-based, human; conditions: for superoxide production (superoxide detection reagent staining) in treated HeLa cells: 0.2 mM CoCl2, 0.2 mM DFO or 1 mM DMOG, 3.5 h
Experimental: HeLa and U-2 OS cells were cultured as described in Example 7. Stock solutions of CD-1 and CD-5 and various hypoxia inducers were prepared and stored as described in Examples 7 and 8. Additionally, 5 mM stock solutions (5000×) of 2′,7′-dichloro-fluorescein diacetate (DCFDA, an indicator of global ROS generation) and dihydroethidium (DHE, specific indicator of superoxide generation) were made in anhydrous DMF. DMSO was avoided, since this solvent is a hydroxyl radical scavenger and its presence may affect ROS/RNS production in cellular systems. The following stocks of ROS inducers were prepared in DMF: 10 mM pyocyanin (general ROS generating compound, 100×), 20 mM antimycin A (general ROS inducer, 400×), 50 mM pyrogallol (a superoxide radical generator, 1000×), 1 mM t-butyl hydroperoxide (TBHP, peroxide radical inducer, 10,000×). ROS probes and inducers were aliquoted and stored at −80° C.
The day before the experiment, the cells were seeded on 4-well microscope slides (Cel-Line™ Brand, Portsmouth, N.H.) at a density 1×10^4 cells/well (2×10^4 cells/cm^2). On the day of the experiment, the cells were preloaded with both hypoxia probe (5 μM final concentration in cell culture medium) and ROS detecting reagent with suitable spectral characteristics. Two ROS-detecting probes, DCFDA and DHE, were used in a pilot experiment in conjunction with hypoxia self-immolative probes. The hydrolyzed product of DCFDA, DCFH, is considered to be a general indicator of ROS, reacting with H2O2 (in the presence of peroxidases), ONOO^−, lipid hydroperoxides, and hydroxyl radicals. The oxidized product can be detected by strong fluorescence emission at around 525 nm when excited at around 488 nm. Because H2O2 is a secondary product of O2.^−, DCFH fluorescence has been used to implicate O2.^− production. The direct reaction of DHE with O2.^− yields a very specific fluorescent product, requiring no conversion to H2O2. The product of the DHE reaction with O2.^− fluoresces strongly at around 600 nm when excited at 500-530 nm.
Tested pairs of the probes were as follows: CD-5 with DCFDA or DHE, and CD-1 with DHE. A hypoxic state was induced in the cells as described in Example 7. Control slides were singly-stained with hypoxia or ROS-detecting probes only. Additional slides were treated with different general and specific ROS inducers and stained with ROS-detecting probes to control ROS staining. Post-treatment, the slides were washed twice with PBS, coverslipped and visualized using an Olympus BX-51 fluorescence microscope and a DAPI filter set (350 ex/470em) for CD-5, an FITC filter set (490ex/525em) for CD-1 or for total ROS detection reagent, and an orange filter set (550ex/620em) for HE.

[2] = test system: Jurkat cells; test: Combined detection of hypoxia and superoxide in live cells by flow cytometry; type: cell-based, human
Experimental: HeLa, U-2 OS, and Jurkat cell lines were cultured as described in Examples 7 and 9. Stock solutions of the probes and inhibitors were prepared as described in Examples 7 and 10.
The day before the experiment, HeLa and U-2 OS cells were seeded in 6-well tissue culture plates at a density of 5×10^5 cells/well. Jurkat cells were collected in logarithmic phase of growth and aliquoted at a density of 5×10^5 cells/sample. On the day of the experiment, the cells were preloaded with either hypoxia or ROS-detecting probes only or with the combination of hypoxia and ROS-detecting probes with compatible spectral characteristics. Samples stained with single hypoxia probes or with two ROS-detecting probes were made to validate data obtained with the combination of hypoxia and redox probes. The probes used in the experiment and their final concentrations in cell culture medium were as follows: CD-1(5 μM) and CD-6 (1 μM), DCFDA, peroxide/peroxynitrite/hydroxyl detection probe and HE, specific superoxide detection reagent (1 μM for both redox probes). Hypoxia was induced in the cells as described in Example 7. Additionally, cells were treated with different general and specific ROS inducers and stained with ROS-detecting probes to control ROS production and staining. Post-treatment, the adherent cells (HeLa and U-2 OS) were collected by trypsinization, re-suspended in 0.5 mL of fresh PBS and analyzed using flow cytometry. Jurkat cells were analyzed without washing. Flow cytometry experiments were performed using an FACS Calibur benchtop flow cytometer (BD Biosciences) equipped with a blue (488 nm) laser, and the fluorescence was recorded in the FITC (530/30 filter), PE (585/42 filter) and PerCP (670 LP filter) channels. Data were collected uncompensated, also compensation corrections were performed using unstained cells, and cells stained with each single dye separately (CD-1, CD-6, DCFDA or HE). To quantify data, quadrant gates were set using untreated samples.

[3] = Chemical assay: reduction of probe by sodium hydrosulfite, fluorescence; conditions: PBS pH 7.4, room temperature, over a 60 minute period
Experimental: A solution of probe CD-6 in DMSO (0.1-1.0 μl) was added to 90 μl of PBS buffer (10 mM, pH 7.4). After mixing, 10 μl of 100 mM aqueous sodium hydrosulfite was added. The reaction mixture was incubated at room temperature for amount of time ranging from 1 minute to 6 hours. As a control, 10 μl of water instead of sodium hydrosulfite was used.

[4] = test system: Jurkat cells; test: Detection of hypoxia using flow cytometry; type: cell-based, human; conditions: 5 μM CD-1, 1 μM CD-6, versus vehicle-treated loaded cells
Experimental: HeLa and U-2 OS cells were cultured as described in Example 7. Human Jurkat T-cell leukemia cells (the A3 subclone) was obtained from ATCC and routinely cultured in RPMI-1640 medium (ATCC) supplemented with 10% fetal bovine serum (ATCC) and 100 U/ml penicillin+100 μg/ml streptomycin (Sigma-Aldrich). Cell cultures were maintained in an incubator at 37° C., with 5% CO2 atmosphere. CD-1, CD-4 and CD-6 self-immolative hypoxia probes were prepared as described in Example 8. All hypoxia inducers stocks were prepared as described in Example 7.
The day before the experiment, HeLa and U-2 OS cells were seeded in 6-well tissue culture plates at a density 5×10^5 cells/well. […] Post-treatment, the adherent cells (HeLa and U-2 OS) were collected by trypsinization, re-suspended in 0.5 mL of fresh PBS and analyzed using flow cytometry. Jurkat cells were analyzed without washing.
Flow cytometry experiments were performed using a FACS Calibur benchtop flow cytometer (BD Biosciences) equipped with a blue (488 nm) laser, and the fluorescence was recorded in the FITC (530/30 filter), PE (585/42 filter) and PerCP (670 LP filter) channels. Hypoxic cells were detected by detecting increases in fluorescence. The degree of hypoxia (Khyp) can be quantified by using Kolmogorov-Smirnov statistics (Young, 1977) or the following formula: Khyp=(MFIhyp−MFIcon)/MFIhyp, […]

[5] = test system: hypoxic HeLa cells; test: Detection of hypoxia with hypoxia markers using fluorescence microscopy; type: cell-based, human; conditions: 5 μM, 3.5 h, chemical induction of hypoxia (CoCl2, DFO, DMOG) or anoxic treatment, FITC filter
Experimental: The human cervical adenocarcinoma epithelial cell line HeLa, U-2 OS human bone osteosarcoma cell line and hamster ovary CHO K1 cell line were obtained from ATTC. HeLa cells were routinely cultured in Eagle's Minimum Essential Medium with low glucose (ATCC), supplemented with 10% fetal bovine serum (ATCC) and 100 U/ml penicillin, 100 μg/ml streptomycin (Sigma-Aldrich, St. Louis, Mo.). U-2 OS cells were routinely cultured in McCoy's 5a Modified Medium (ATCC), supplemented with 10% fetal bovine serum heat (ATCC) and 100 U/ml penicillin+100 μg/ml streptomycin (Sigma-Aldrich). […]
The day before the experiment, the cells were seeded on 4-well microscope slides (Cel-Line™ Brand, Portsmouth, N.H.) at a density 1×10^4 cells/well (2×10^4 cells/cm^2). […] Post-treatment, the slides were washed twice with PBS, coverslipped and visualized using an Olympus BX-51 fluorescence microscope (FITC filter set, 490ex/525em).
In parallel, the hypoxia cellular state was detected using the hypoxia detecting reagent pimonidazole (Varia et al., 1998; Young, 1977). […] Slides were stained with a 1:100 dilution of FITC-MAb1 against pimonidazole (HP-1 kit from Hypoxyprobe) for 45 min at 4° C., washed twice with PBS, coverslipped and visualized using an Olympus BX-51 fluorescence microscope equipped with an FITC filter set (490ex/525em). […]

[6] = test system: bacterial nitroreductases; conditions: cited from earlier work
[7] = test system: mammalian single-electron reductases; conditions: cited from earlier work

CC(=O)N(O)CCCCCNC(=O)CCC(=O)N(O)CCCCCNC(=O)CCC(=O)N(O)CCCCCN [DFO, desferrioxamine]
superoxide production (superoxide detection reagent staining) in treated HeLa cells [1]: Abundant superoxide production

Cn1c2cccc(=O)c-2nc2ccccc21 [Pyocyanin, pyocyanin]
hypoxia state: positive green cells ([2]; Jurkat cells stained with CD-1, pyocyanin-treated): about 10%
superoxide production in treated Jurkat cells ([2]; positive control for ROS production): high superoxide production

[Cl][Co][Cl] [CoCl2, cobalt chloride]
superoxide production (superoxide detection reagent staining) in treated HeLa cells [1]: only moderate staining
superoxide production: population of orange positive cells ([2]; Jurkat cells, compared to the untreated cells): about 20%

O=C(Nc1ccc2c(c1)Oc1c(cc3c4c1CCCN4CCC3)C21OC(=O)c2ccccc21)OCc1ccc([N+](=O)[O-])cc1 (centres unmarked) [CD-6]
fluorescence after combining with sodium hydrosulfite [3]: increasing fluorescence
fluorescence in Jurkat cells treated with chemical hypoxia inducers or subjected to anoxia [4]: fluorescence increase
detection of hypoxic cell populations ([2]; CD-6 1 μM with DCFDA or HE dyes or alone, flow cytometry): able to detect hypoxic cell populations

COC(=O)CNC(=O)C(=O)OC [DMOG, dimethyloxalylglycine, N-[Methoxyoxoacetyl]glycine methyl ester]
superoxide production (superoxide detection reagent staining) in treated HeLa cells [1]: Abundant superoxide production
peroxides/peroxynitrite formation in treated HeLa cells ([1]; DCFDA staining): detected in DMOG-treated cells only

O=C(Nc1ccc2c(c1)Oc1cc(NC(=O)N3CCOCC3)ccc1C21OC(=O)c2ccccc21)OCc1ccccc1 (centres unmarked) [CD-3]
fluorescence signal in hypoxic HeLa cells [5]: did not yield any fluorescent signal

O=c1c(Cl)c2oc3cc([N+](=O)[O-])ccc3nc-2c2ccccc12 [CNOB, 6-Chloro-9-nitro-5-oxo-5H-benzo[a]phenoxazine]
substrate for bacterial nitroreductases [6]: good substrate
substrate for mammalian nitroreductases [7]: apparently not a substrate

O=C(Nc1ccc2c(C(F)(F)F)cc(=O)oc2c1)OCc1ccc([N+](=O)[O-])cc1 [CD-5]
hypoxia probe fluorescent signal in hypoxic HeLa cells, multiplexed with ROS dyes ([1]; 5 μM, all four hypoxic samples (anoxia, CoCl2, DFO, DMOG)): bright fluorescent signal
